Source: US20260248087A1, “GENERATING DOUBLED HAPLOID PLANTS” (Syngenta Crop Protection AG, priority 2023, published 2026)
Several values for one entry are separate records, joined by “and”; a condition that tells them apart may be missing. Identical values can stand only once.

What was measured:
embryos from maize ears [1] = experiment: Potting and transplant rate, co-treatment with metcamifen and thiamethoxam during colchicine doubling; type: in vivo
From the text: (§1) As used herein, the term “potted rate” or “potting rate” refers to the percent of germinated embryos successfully transferred to soil from total treated haploid embryos. The “potted rate” is used as an indication of plant health in monitoring the success of recovery and growth after treatment of haploids. As used herein, the term “transplant rate” refers to the survival of healthy plants after embryos were germinated and transferred to soil.
(§2) To assess the impact of the safener and vigor enhancing compounds on the full DH production pipeline, experiments were designed and conducted spanning haploid embryo isolation, doubling treatment, germination, potting, growth to maturity, selfing, and seed set evaluation. Embryos from maize ears of two genotypes were isolated and co-treated with both metcamifen and thiamethoxam during the colchicine doubling treatment, in triplicate. Metcamifen was added in the Murashige and Skoog Medium (MS medium) at concentrations ranging from 400 to 800 mg/L in combination with TMX at concentrations ranging from 4000 to 6000 mg/L. Control co-treatments with metcamifen alone, TMX alone, or colchine-only were run in parallel. Concentrations for co-treatments were selected based on best outcomes from experiments in Examples 1-8. The co-treatments incubated for 24 and 48 hours at 28° C. with 150 PAR light. Resulting embryos were germinated and the percentage of embryos successfully transferred to soil was measured as the potting rate. The survival of healthy plants was measured as the transplant rate.

corn embryos = experiment: Uptake of metcamifen and metabolism of colchicine in corn embryos (LCMS); type: in vitro ADME
Method: An experiment was completed to evaluate the uptake of metcamifen into corn embryos, whether colchicine is metabolized in the embryos, and if metcamifen increased the rate of colchicine metabolism. Corn embryos were co-treated with 500 ppm colchicine in the presence of 200 ppm, 1000 ppm or no metcamifen (control) for 24 or 48 hours and frozen. One biological replicate was represented by five embryos, and three biological replicates were used per co-treatment.
Prior to extraction, embryos were washed for 20 seconds in 80:20 (v/v) acetonitrile:H2O to remove any colchicine and metcamifen on the surface. Each replicate was extracted in 0.5 ml methanol using a fast prep maceration method. Then, samples were diluted 1 in 10 prior to analysis by Liquid Chromatography Mass Spectrometry (LCMS). Samples were analyzed alongside matrix matched standards of colchicine and metcamifen. Metabolite investigations were performed to identify any metabolites.

GST27 = GST27 induction, metcamifen and thiamethoxam co-treatment in liquid medium; type: cell-based, maize
Method: For the examples below, GST27 was used as a quick indicator for treatment effectiveness.
(§3) Isolated embryos were placed in a Petri dish on filter paper wetted with liquid Murashige and Skoog Medium (MS medium) containing colchicine and a formulation of metcamifen at 800 mg/L, TMX at 4000 mg/L, or a combination of 800 mg/L metcamifen and 4000 mg/L TMX. The colchicine treatment control used the same conditions except with a medium containing 3.5 g/L Gelzan as compared to the liquid medium without Gelzan. The co-treatments incubated for 24 or 48 hours at 28° C. with 150 PAR light and were conducted on 2 genotypes with 2 replicates. The effects on GST expression, potting rate, and transplant rate are reported (see Table 16). The rate of diploid escapes observed increased to 6.4-8.5% in the 24-hour co-treatments with 4000 mg/L TMX and 4000 mg/L TMX combined with 800 mg/L metcamifen. In all other co-treatments, the escape rate was 0%. […] The best transplant rates observed were in the 24-hour duration 4000 mg/L TMX co-treatment (90%) compared to the control (72%).
(§4) In a separate experiment, additional concentrations of metcamifen and TMX co-treatment were tested in liquid co-treatments. The experimental setup was the same as described above for the data in Table 16, but the co-treatment concentrations were varied. […] The decreased concentrations were associated with lower rates of escapes in the 24-hour co-treatments, only the metcamifen with TMX combination co-treatment produced escapes (1.8%). Potting and transplant rates remained high, with the best performance in the 24-hour metcamifen with TMX combination co-treatment (96% potting, and 87% transplant) compared to the colchicine-only control (60% potting, and 47% transplant) (see Table 17). In all liquid media co-treatments, higher rates of bacterial and/or fungal contamination were observed. In total, 35% of the attempted experiments were discarded due to contamination issues and excluded from the data analysis.

embryos from maize ears [2] = experiment: Ear kernel setting rates and DH yield after co-treatment with metcamifen and thiamethoxam; type: in vivo; settings: for Ears >4 Rate Mean / Ears >49 Rate Mean: co-treatment with colchicine
Method: as §2, with “transplant rate. […]” for “transplant rate.”
One way of measuring the success of DH production is a ratio of output:input, defined as “DH yield”, where a larger ratio is typically desirable for a more efficient production system. In this study, we measured this in two ways: DH ears/total haploid embryos and DH ears/transplants (see Table 15).

isolated embryos = experiment: Potting and transplant rate, metcamifen and thiamethoxam co-treatment in liquid medium; type: in vivo, maize
From the text: as §1, §3, §4

[3] = Table 16, liquid medium: metcamifen 800 mg/L, 24 Hour
[4] = Table 16, liquid medium: metcamifen 800 mg/L, 48 Hour
[5] = Table 17, liquid medium: metcamifen 800 mg/L, 24 Hour
[6] = Table 17, liquid medium: metcamifen 800 mg/L, 48 Hour
[7] = Table 16, liquid medium: TMX 4000 mg/L, 24 Hour
[8] = Table 16, liquid medium: TMX 4000 mg/L, 48 Hour
[9] = Table 17, liquid medium: TMX 4000 mg/L, 24 Hour
[10] = Table 17, liquid medium: TMX 6000 mg/L, 48 Hour

CNC(=O)Nc1ccc(S(=O)(=O)NC(=O)c2ccccc2OC)cc1 [Metcamifen, metcamifen]
Potted Rate Mean (embryos from maize ears [1]; metcamifen 800 mg/L, 24 hours): 76% | Transplant Rate Mean (embryos from maize ears [1]; metcamifen 800 mg/L, 24 hours): 68% | Potted Rate Mean (embryos from maize ears [1]; metcamifen 800 mg/L, 48 hours): 15% | Transplant Rate Mean (embryos from maize ears [1]; metcamifen 800 mg/L, 48 hours): 15% | effect of metcamifen on amount of colchicine recovered (corn embryos; 500 ppm colchicine with 200 or 1000 ppm metcamifen): did not reduce the amount of colchicine recovered | metcamifen in embryo extracts (uptake) (corn embryos; co-treated with 500 ppm colchicine and 200 or 1000 ppm metcamifen, 24 and 48 hours): could be detected | recovery amount of colchicine metabolite (−14, O-demethylation) (corn embryos; duration and metcamifen co-treatment): increased | GST27 Induction After (GST27; [3]): 270 ng/mg TSP | GST27 Induction Before (GST27; [3]): 0 ng/mg TSP | GST27 Induction After (GST27; [4]): 396 ng/mg TSP | GST27 Induction Before (GST27; [4]): 0 ng/mg TSP | GST27 Induction After (GST27; [5]): 263 ng/mg TSP | GST27 Induction Before (GST27; [5]): 0 ng/mg TSP | GST27 Induction After (GST27; [6]): 340 ng/mg TSP | GST27 Induction Before (GST27; [6]): 4 ng/mg TSP | Ears >4 Rate Mean (embryos from maize ears [2]; metcamifen 800 mg/L, 24 hours): 38% | Ears >49 Rate Mean (embryos from maize ears [2]; metcamifen 800 mg/L, 24 hours): 24% | Ears >4 Rate Mean (embryos from maize ears [2]; metcamifen 800 mg/L, 48 hours): 9% | Ears >49 Rate Mean (embryos from maize ears [2]; metcamifen 800 mg/L, 48 hours): 4% | Ears >4 DH Yield, DH Ears/Total Haploids, Mean (embryos from maize ears [2]; metcamifen 800 mg/L, 24 hours): 0.33 | Ears >4 DH Yield, DH Ears/Transplants, Mean (embryos from maize ears [2]; metcamifen 800 mg/L, 24 hours): 0.47 | Ears >49 DH Yield, DH Ears/Total Haploids, Mean (embryos from maize ears [2]; metcamifen 800 mg/L, 24 hours): 0.21 | Ears >49 DH Yield, DH Ears/Transplants, Mean (embryos from maize ears [2]; metcamifen 800 mg/L, 24 hours): 0.30 | Ears >4 DH Yield, DH Ears/Total Haploids, Mean (embryos from maize ears [2]; metcamifen 800 mg/L, 24 hours, listed as metcamifen): increased significantly | Ears >4 DH Yield, DH Ears/Total Haploids, Mean (embryos from maize ears [2]; metcamifen 800 mg/L, 48 hours): 0.07 | Ears >4 DH Yield, DH Ears/Transplants, Mean (embryos from maize ears [2]; metcamifen 800 mg/L, 48 hours): 0.61 | Ears >49 DH Yield, DH Ears/Total Haploids, Mean (embryos from maize ears [2]; metcamifen 800 mg/L, 48 hours): 0.03 | Ears >49 DH Yield, DH Ears/Transplants, Mean (embryos from maize ears [2]; metcamifen 800 mg/L, 48 hours): 0.25 | Potting Rate Mean (isolated embryos; [3]): 92.5% | Transplant Rate Mean (isolated embryos; [3]): 88.2% | Potting Rate Mean (isolated embryos; [4]): 21.5% | Transplant Rate Mean (isolated embryos; [4]): 20.4% | Potting Rate Mean (isolated embryos; [5]): 86.2% | Transplant Rate Mean (isolated embryos; [5]): 74.1% | Potting Rate Mean (isolated embryos; [6]): 9.2% | Transplant Rate Mean (isolated embryos; [6]): 9.2%

CN1COCN(Cc2cnc(Cl)s2)/C1=N\[N+](=O)[O-] [TMX, thiamethoxam]
Potted Rate Mean (embryos from maize ears [1]; TMX 4000 mg/L, 48 hours): 79% | Transplant Rate Mean (embryos from maize ears [1]; TMX 4000 mg/L, 48 hours): 77% | Potted Rate Mean (embryos from maize ears [1]; TMX 6000 mg/L, 24 hours): 95% | Transplant Rate Mean (embryos from maize ears [1]; TMX 6000 mg/L, 24 hours): 93% | GST27 Induction After (GST27; [7]): 255 ng/mg TSP | GST27 Induction Before (GST27; [7]): 0 ng/mg TSP | GST27 Induction After (GST27; [8]): 194 ng/mg TSP | GST27 Induction Before (GST27; [8]): 1 ng/mg TSP | GST27 Induction After (GST27; [9]): 193 ng/mg TSP | GST27 Induction Before (GST27; [9]): 5 ng/mg TSP | GST27 Induction After (GST27; [10]): 208 ng/mg TSP | GST27 Induction Before (GST27; [10]): 13 ng/mg TSP | Ears >4 DH Yield, DH Ears/Total Haploids, Mean (embryos from maize ears [2]; TMX 4000 mg/L, 48 hours): 0.29 | Ears >4 DH Yield, DH Ears/Transplants, Mean (embryos from maize ears [2]; TMX 4000 mg/L, 48 hours): 0.37 | Ears >49 DH Yield, DH Ears/Total Haploids, Mean (embryos from maize ears [2]; TMX 4000 mg/L, 48 hours): 0.12 | Ears >49 DH Yield, DH Ears/Transplants, Mean (embryos from maize ears [2]; TMX 4000 mg/L, 48 hours): 0.16 | Ears >4 DH Yield, DH Ears/Transplants, Mean (embryos from maize ears [2]; TMX 6000 mg/L, 24 hours): 0.44 | Ears >49 DH Yield, DH Ears/Total Haploids, Mean (embryos from maize ears [2]; TMX 6000 mg/L, 24 hours): 0.20 | Ears >49 DH Yield, DH Ears/Transplants, Mean (embryos from maize ears [2]; TMX 6000 mg/L, 24 hours): 0.21 | Ears >4 Rate Mean (embryos from maize ears [2]; TMX 4000 mg/L, 48 hours): 30% | Ears >49 Rate Mean (embryos from maize ears [2]; TMX 4000 mg/L, 48 hours): 13% | Ears >4 Rate Mean (embryos from maize ears [2]; TMX 6000 mg/L, 24 hours): 45% | Ears >49 Rate Mean (embryos from maize ears [2]; TMX 6000 mg/L, 24 hours): 24% | Potting Rate Mean (isolated embryos; [7]): 92.3% | Transplant Rate Mean (isolated embryos; [7]): 90% and 89.7% | Potting Rate Mean (isolated embryos; [8]): 79.4% | Transplant Rate Mean (isolated embryos; [8]): 72.2% | Potting Rate Mean (isolated embryos; [9]): 77.3% | Transplant Rate Mean (isolated embryos; [9]): 81.3% | Potting Rate Mean (isolated embryos; [10]): 58.0% | Transplant Rate Mean (isolated embryos; [10]): 54.0%
